In patent publication US20120065196A1, “AMIDE COMPOUNDS” (priority 2006, published 2012):
pIC50: −log10 of the molar value.

Target: T1, human DGAT1 (Homo sapiens, UniProt O75907)
T1 construct: (N); made in house; host or cells: Sf9 insect cells infected with recombinant baculovirus BAC-DGAT1; microsome fraction
T1 sequence (O75907 1-488): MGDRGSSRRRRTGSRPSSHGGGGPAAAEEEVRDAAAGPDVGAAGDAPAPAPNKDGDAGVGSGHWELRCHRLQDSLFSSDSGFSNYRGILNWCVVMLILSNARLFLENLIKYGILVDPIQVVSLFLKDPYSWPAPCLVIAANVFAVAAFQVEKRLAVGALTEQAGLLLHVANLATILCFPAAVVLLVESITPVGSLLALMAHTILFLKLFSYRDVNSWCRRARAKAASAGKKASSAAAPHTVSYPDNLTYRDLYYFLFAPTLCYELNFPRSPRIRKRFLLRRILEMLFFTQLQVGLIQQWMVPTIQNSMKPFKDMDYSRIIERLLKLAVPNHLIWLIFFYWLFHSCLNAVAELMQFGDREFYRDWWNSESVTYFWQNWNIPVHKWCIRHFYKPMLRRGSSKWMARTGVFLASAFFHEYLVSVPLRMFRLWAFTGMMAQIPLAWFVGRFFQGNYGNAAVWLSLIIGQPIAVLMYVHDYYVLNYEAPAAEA
Assay: Determination of DGAT inhibitory activity (triglyceride synthesis with DGAT1 high expression Sf9 microsome)
Assay type: biochemical
Conditions: 25 μM dioleoylglycerol, 25 μM [14C]-Oleoyl-CoA, 32° C., 20 min, read-out: hDGAT1 IC50
Experimental: Human DGAT1 gene was cloned by PCR using human adipocyte cDNA (Clontech, QUICK-Clone cDNA, human fat cell, cat #637220) as a template and, based on the DGAT1 gene information reported by Case, S. et al. (Proc. Natl. Acad. Sci. U.S.A. 95 (22), 13018-13023 (1998)), a nucleotide sequence (245-1711 of Genbank Accession No. NM_012079) encoding DGAT1 was amplified with the following PCR primer. The primer nucleotide sequence is shown below.
The PCR reaction was conducted using a KOD-plus kit (TOYOBO). The obtained PCR product was electrophoresed on agarose gel (1%), the DNA fragment amplified by PCR was recovered from the gel, and then digested with restriction enzymes EcoRI and SpeI. The DNA treated with the restriction enzymes was electrophoresed on agarose gel (1%), and the obtained DNA fragment was recovered and ligated with plasmid pFASTBAC1 (Invitrogen) digested with restriction enzymes EcoRI and SpeI to give expression plasmid pFB-DGAT1. The nucleotide sequence of the inserted fragment was confirmed and found to be identical with the nucleotide sequence of DGAT1 (245-1711 of Genbank Accession No. NM_012079). Furthermore, using BAC-TO-BAC Baculovirus Expression System (Invitrogen), recombinant baculovirus BAC-DGAT1 was prepared.
SF9 cells were sown at 1×10^6 cells/ml on Sf-900II SFM medium (1 L, Invitrogen) containing 10% fetal calf serum (Trace), 50 mg/L gentamicin (Invitrogen) and 0.1% Pluronic F-68 (Invitrogen), and shaking culture was performed using a 2 L volume Erlenmeyer flask at 27° C., 100 rpm. After culturing for 24 hrs, recombinant baculovirus BAC-DGAT1 (6.7 mL) was added, and the mixture was further cultured for 3 days. The culture medium was centrifuged at 2,000 rpm for 5 min to give virus-infected cells. The infected cells were washed with a phosphate buffered saline (Invitrogen), centrifuged under the same conditions, and the cells were preserved at −80° C. The cryopreserved cells were thawed in ice, suspended in buffer A (50 mM Tris buffer (30 mL, pH 7.4) containing 20% glycerol, 0.15 M NaCl) supplemented with Complete Protease Inhibitor (Boehringer), and ruptured 3 times with a Polytron homogenizer (Kinematica) at 20,000 rpm for 30 sec. The Sf9 microsome fractions were obtained by a conventional method and cryopreserved at −80° C. as a DGAT1 high expression Sf9 microsome.
As a DGAT1 reaction buffer, a solution having a composition of 100 mM Tris-HCl (pH 7.5), 250 mM sucrose, 150 mM MgCl2, 0.01% bovine serum albumin (BSA) was used. Using this buffer, a given concentration of the test compound and a composition (100 μl) of 25 μM dioleoylglycerol, 25 μM [^14C]-Oleoyl-CoA, 5 μg protein/ml DGAT1 high expression Sf9 microsome, and 1% acetone were subjected to a triglyceride synthesis reaction at 32° C. for 20 min. A mixture of 300 μL of chloroform:methanol (=1:2) was added to the reaction mixture to quench the reaction. The reaction mixture was sufficiently mixed and distilled water (200 μL) was added to partition the mixture between a chloroform layer (lower layer) and an aqueous layer (upper layer). The chloroform layer (50 μL) was spotted on a thin layer chromatography silica gel plate (TLC plate, Merck) and developed with a solvent (n-hexane:diethyl ether:ethyl acetate:acetic acid=255:30:15:0.6). The developed TLC plate was dried, contacted with a BAS imaging plate (manufactured by FUJIFILM) and measured with BAS2500 (manufactured by FUJIFILM) 16 hr later to numerically show the amount of [^14C]-triglyceride (TG amount) produced during the reaction. The inhibitory rate was calculated by the following formula:
Inhibitory rate (%)=(1−(TG amount with addition of test compound−blank TG amount)/(control TG amount−blank TG amount))×100 […]

**Q.** With CC(C)c1nnc([C@H]2CC[C@H](C(=O)NCCNC(=O)c3cn(-c4ccccc4)nc3C(F)(F)F)N(C)C2)o1 (relative stereo) [Example E267, trans-5-(5-isopropyl-1,3,4-oxadiazol-2-yl)-1-methyl-N-(2-(1-phenyl-3-(trifluoromethyl)-1H-pyrazole-4-carboxamido)ethyl)piperidine-2-carboxamide] as the molecule, how does the pIC50 read?
**A.** The pIC50 was 6.00 to 7.00.

**Q.** How did the pIC50 turn out when CCCC1CCN(C(=O)NCCNC(=O)c2cn(-c3ccccc3)nc2C(F)(F)F)CC1 [Example E15, N-(2-(1-phenyl-3-(trifluoromethyl)-1H-pyrazole-4-carboxamido)ethyl)-4-propylpiperidine-1-carboxamide] was run?
**A.** Its pIC50 is 7.00 to 8.00.

**Q.** O=C(NCCNC(=O)C1CCN(S(=O)(=O)c2ccccc2)CC1)c1cn(-c2ccccc2)nc1C(F)(F)F [Example E34, N-(2-(1-phenyl-3-(trifluoromethyl)-1H-pyrazole-4-carboxamido)ethyl)-1-(phenylsulfonyl)piperidine-4-carboxamide] was tested. Which pIC50 did it give?
**A.** The pIC50 was 7.00 to 8.00.

**Q.** O=C(NCCNC(=O)N1CCC(C(=O)N2CCCC2)CC1)c1cn(-c2ccccc2)nc1C(F)(F)F [Example E63, N-(2-(1-phenyl-3-(trifluoromethyl)-1H-pyrazole-4-carboxamido)ethyl)-4-(pyrrolidine-1-carbonyl)piperidine-1-carboxamide] was tested. Which pIC50 did it give?
**A.** Its pIC50 is 6.00 to 7.00.

**Q.** CC1CN(C(=O)NCCNC(=O)c2cn(-c3ccccc3)nc2C(F)(F)F)CCN1c1ccccc1 (centres unmarked) [Example E64, 3-methyl-4-phenyl-N-(2-(1-phenyl-3-(trifluoromethyl)-1H-pyrazole-4-carboxamido)ethyl)piperazine-1-carboxamide] was tested. Which pIC50 did it give?
**A.** The pIC50 was 7.00 to 8.00.

**Q.** With O=C(NCCNC(=O)[C@H]1CC[C@H](C(=O)c2ccccc2)CC1)c1cn(-c2ccccc2)nc1C(F)(F)F [Example E65, N-(2-(trans-4-benzoylcyclohexanecarboxamido)ethyl)-1-phenyl-3-(trifluoromethyl)-1H-pyrazole-4-carboxamide] as the molecule, how does the pIC50 read?
**A.** The pIC50 was 7.00 to 8.00.

**Q.** How did the pIC50 turn out when O=C(NCCNC(=O)C1CCN(S(=O)(=O)c2cccnc2)CC1)c1cn(-c2ccccc2)nc1C(F)(F)F [Example E74, N-(2-(1-phenyl-3-(trifluoromethyl)-1H-pyrazole-4-carboxamido)ethyl)-1-(pyridin-3-ylsulfonyl)piperidine-4-carboxamide] was run?
**A.** Its pIC50 is 7.00 to 8.00.

**Q.** With O=C(N[C@H]1CC[C@H](C(=O)NCCNC(=O)c2cn(-c3ccccc3)nc2C(F)(F)F)CC1)c1ccccc1 [Example E91, N-(2-(trans-4-Benzamidocyclohexanecarboxamido)ethyl)-1-phenyl-3-(trifluoromethyl)-1H-pyrazole-4-carboxamide] as the molecule, how does the pIC50 read?
**A.** The pIC50 was 6.00 to 7.00.

**Q.** O=C(NCCNC(=O)N1CCc2nc[nH]c2C1)c1cn(-c2ccccc2)nc1C(F)(F)F [Example E95, N-(2-(1-phenyl-3-(trifluoromethyl)-1H-pyrazole-4-carboxamido)ethyl)-6,7-dihydro-3H-imidazo[4,5-c]pyridine-5(4H)-carboxamide] was tested. Which pIC50 did it give?
**A.** Its pIC50 is 6.00 to 7.00.

**Q.** O=C(NCCNC(=O)N1CCC(c2nc(-c3cccnc3)no2)CC1)c1cn(-c2ccccc2)nc1C(F)(F)F [Example E101, N-(2-(1-phenyl-3-(trifluoromethyl)-1H-pyrazole-4-carboxamido)ethyl)-4-(3-(pyridin-3-yl)-1,2,4-oxadiazol-5-yl)piperidine-1-carboxamide] was tested. Which pIC50 did it give?
**A.** The pIC50 was 7.00 to 8.00.

**Q.** With O=C(NCCNC(=O)C1CCC(c2ccccc2)CC1)c1cn(-c2ccccc2)nc1C(F)(F)F (centres unmarked) [Example E105, 1-phenyl-N-(2-(4-phenylcyclohexanecarboxamido)ethyl)-3-(trifluoromethyl)-1H-pyrazole-4-carboxamide] as the molecule, how does the pIC50 read?
**A.** The pIC50 was over 8.00.

**Q.** O=C(NCCNC(=O)N1CCC(NS(=O)(=O)c2ccccc2)CC1)c1cn(-c2ccccc2)nc1C(F)(F)F [Example E114, N-(2-(1-Phenyl-3-(trifluoromethyl)-1H-pyrazole-4-carboxamido)ethyl)-4-(phenylsulfonamido)piperidine-1-carboxamide] was tested. Which pIC50 did it give?
**A.** The pIC50 was 6.00 to 7.00.

**Q.** CC(C)CN(C)C(=O)[C@H]1CC[C@H](C(=O)NCCNC(=O)c2cn(-c3ccccc3)nc2C(F)(F)F)CC1 [Example E126, trans-N1-isobutyl-N-1-methyl-N4-(2-(1-phenyl-3-(trifluoromethyl)-1H-pyrazole-4-carboxamido)ethyl)cyclohexane-1,4-dicarboxamide] was tested. Which pIC50 did it give?
**A.** Its pIC50 is 7.00 to 8.00.

**Q.** With O=C(NCCNC(=O)[C@H]1CC[C@H](C(=O)c2ccccc2)CC1)c1cn(-c2ccccn2)nc1C(F)(F)F [Example E150, N-(2-(trans-4-benzoylcyclohexanecarboxamido)ethyl)-1-(pyridin-2-yl)-3-(trifluoromethyl)-1H-pyrazole-4-carboxamide] as the molecule, how does the pIC50 read?
**A.** The pIC50 was over 8.00.

**Q.** O=C(NCCNC(=O)[C@H]1CC[C@H](c2nc(C3CC3)no2)CC1)c1cn(-c2ccccc2)nc1C(F)(F)F [Example E151, N-(2-(trans-4-(3-Cyclopropyl-1,2,4-oxadiazol-5-yl)cyclohexanecarboxamido)ethyl)-1-phenyl-3-(trifluoromethyl)-1H-pyrazole-4-carboxamide] was tested. Which pIC50 did it give?
**A.** Its pIC50 is 7.00 to 8.00.

**Q.** With CC(C)c1nnc([C@H]2CC[C@H](C(=O)NCCNC(=O)c3cn(-c4ccccc4)nc3C(F)(F)F)CC2)o1 [Example E163, N-(2-(trans-4-(5-isopropyl-1,3,4-oxadiazol-2-yl)cyclohexanecarboxamido)ethyl)-1-phenyl-3-(trifluoromethyl)-1H-pyrazole-4-carboxamide] as the molecule, how does the pIC50 read?
**A.** The pIC50 was 7.00 to 8.00.

**Q.** With O=C(NCCNC(=O)[C@H]1CC[C@H](C(=O)c2ccccc2)CC1)c1cn(-c2ccccc2Cl)nc1C(F)(F)F [Example E164, N-(2-(trans-4-benzoylcyclohexanecarboxamido)ethyl)-1-(2-chlorophenyl)-3-(trifluoromethyl)-1H-pyrazole-4-carboxamide] as the molecule, how does the pIC50 read?
**A.** Its pIC50 is 7.00 to 8.00.

**Q.** How did the pIC50 turn out when O=C(NCCNC(=O)[C@H]1CC[C@H](C(=O)NCCF)CC1)c1cn(-c2ccccc2)nc1C(F)(F)F [Example E165, trans-N1-(2-fluoroethyl)-N4-(2-(1-phenyl-3-(trifluoromethyl)-1H-pyrazole-4-carboxamido)ethyl)cyclohexane-1,4-dicarboxamide] was run?
**A.** The pIC50 was 6.00 to 7.00.

**Q.** With O=C(NCCNC(=O)[C@H]1CC[C@H](c2nc(-c3ccccc3)c[nH]2)CC1)c1cn(-c2ccccc2)nc1C(F)(F)F [Example E172, 1-Phenyl-N-(2-(trans-4-(4-phenyl-1H-imidazol-2-yl)cyclohexanecarboxamido)ethyl)-3-(trifluoromethyl)-1H-pyrazole-4-carboxamide] as the molecule, how does the pIC50 read?
**A.** Its pIC50 is 6.00 to 7.00.

**Q.** O=C(NCCNC(=O)C1CCc2nc(-c3ccccc3)sc2C1)c1cn(-c2ccccc2)nc1C(F)(F)F (centres unmarked) [Example E175, 2-phenyl-N-(2-(1-phenyl-3-(trifluoromethyl)-1H-pyrazole-4-carboxamido)ethyl)-4,5,6,7-tetrahydrobenzo[d]thiazole-6-carboxamide] was tested. Which pIC50 did it give?
**A.** The pIC50 was 7.00 to 8.00.
